From patent publication US9884048B2, “ERK inhibitors” (Merck Sharp & Dohme Corp., priority 2014, dated 2018)

target: phosphorylated active hERK2 enzyme (Homo sapiens (Human), UniProt P28482); conditions: not given
Sequence (P28482 whole entry): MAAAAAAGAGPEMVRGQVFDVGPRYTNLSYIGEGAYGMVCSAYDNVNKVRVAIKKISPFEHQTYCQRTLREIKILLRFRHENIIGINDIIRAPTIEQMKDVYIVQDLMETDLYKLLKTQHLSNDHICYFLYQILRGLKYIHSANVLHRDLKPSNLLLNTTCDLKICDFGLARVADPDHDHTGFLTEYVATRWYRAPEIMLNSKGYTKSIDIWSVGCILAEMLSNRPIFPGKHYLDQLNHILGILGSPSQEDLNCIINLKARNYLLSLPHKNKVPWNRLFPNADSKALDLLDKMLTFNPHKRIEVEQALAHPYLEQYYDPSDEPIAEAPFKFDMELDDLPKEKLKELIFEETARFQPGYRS

IC50	Structure (SMILES)
66.6 nM	Cc1cc(-n2ncc3cc(NC(=O)N[C@H]4CCC[C@@H]4Oc4ccc(F)cc4)ncc32)ccn1 (racemic) [Example 166, Racemic trans 1-[(1S,2S) and (1R,2R)-2-(4-fluorophenoxy)cyclopentyl]-3-[1-(2-methylpyridin-4-yl)-1H-pyrazolo[3,4-c]-pyridin-5-yl)urea]

same assay, conditions: read-out: ERK2 IC50; IMAP-FP assay; 0.5 nM hERK2, 30 μM ATP; 10 point titration, 3 μM starting concentration

Structure (SMILES)	IC50
CCN1CC[C@@H](NC(=O)Nc2cc3cnn(-c4ccnc(C)c4)c3cn2)C1 [Example 28, 1-[(3R)-1-ethylpyrrolidin-3-yl]-3-[1-(2-methylpyridin-4-yl)-1H-pyrazolo[3,4-c]pyridin-5-yl]urea]	104 nM
CO[C@H]1CN(Cc2c(F)cccc2F)C[C@@H]1NC(=O)Nc1cc2cnn(-c3ccnc(C)c3)c2cn1 (single isomer, unassigned) [Example 273, 1-[(3S,4S) or (3R, 4R)-1-(2,6-difluorobenzyl)-4-methoxypyrrolidin-3-yl]-3-[1-(2-methylpyridin-4-yl)-1H-pyrazolo[3,4-c]pyridin-5-yl]urea]	2060 nM
Cc1cc(-n2ncc3cc(NC(=O)N[C@H]4CN(C)C[C@@H]4Oc4cncc(F)c4)ncc32)ccn1 [Example 276, 1-{(3S,4S)-4-[(5-fluoropyridin-3-yl)oxy]-1-methylpyrrolidin-3-yl}-3-[1-(2-methylpyridin-4-yl)-1H-pyrazolo[3,4-c]pyridin-5-yl]urea]	242 nM
Cc1cc(-n2ncc3cc(NC(=O)N[C@H]4CN(C)C[C@@H]4CCCc4ccccc4)ncc32)ccn1 [Example 149, 1-[(3R,4S)-1-methyl-4-(3-phenylpropyl)pyrrolidin-3-yl]-3-[1-(2-methylpyridin-4-yl)-1H-pyrazolo[3,4-c]pyridin-5-yl]urea]	1.18 nM
O=C(NCc1ccc(F)cc1)Nc1cc2cnn(-c3ccc(F)cc3)c2cn1 [Example 1, 1-(4-fluorobenzyl)-3-(1-(4-fluorophenyl)-1H-pyrazolo[3,4-c]pyridin-5-yl)urea]	26 nM
COC[C@@H](NC(=O)Nc1cc2cnn(Cc3ccncc3)c2cn1)c1ccccc1 [Example 260, 1-[(1S)-2-methoxy-1-phenylethyl]-3-[1-(pyridin-4-ylmethyl)-1H-pyrazolo[3,4-c]pyridin-5-yl]urea]	30.9 nM
Cc1cc(-n2ncc3cc(NC(=O)N[C@@H]4[C@@H](c5ccccc5)CN(C)C45COC5)ncc32)ccn1 [Example 184, 1-[(7S,8R)-5-methyl-7-phenyl-2-oxa-5-azaspiro[3.4]oct-8-yl]-3-[1-(2-methylpyridin-4-yl)-1H-pyrazolo[3,4-c]pyridin-5-yl]urea]	873 nM
Cc1cc(-n2ncc3cc(NC(=O)NC4(C#N)CC4)ncc32)ccn1 [Example 121, 1-(1-cyanocyclopropyl)-3-[1-(2-methylpyridin-4-yl)-1H-pyrazolo[3,4-c]pyridin-5-yl]urea]	1810 nM
COC[C@@H](NC(=O)Nc1cc2cnn(C3CCNC(C)C3)c2cn1)c1ccccc1 (stereo partly drawn) [Example 239, 1-[(1S)-2-methoxy-1-phenylethyl]-3-[1-(2-methylpiperidin-4-yl)-1H-pyrazolo[3,4-c]pyridin-5-yl]urea]	2180 nM
Cc1cc(-n2ncc3cc(NC(=O)N[C@H]4CN(C)C[C@@H]4C)ncc32)ccn1 [Example 25, 1-[(3R,4S)-1,4-dimethylpyrrolidin-3-yl]-3-[1-(2-methylpyridin-4-yl)-1H-pyrazolo[3,4-c]pyridin-5-yl]urea]	66.4 nM
C[C@@H](NC(=O)Nc1cc2cnn(CC(F)(F)F)c2c(CO)n1)c1ccccc1 [Example 314, 1-[7-(hydroxymethyl)-1-(2,2,2-trifluoroethyl)-1H-pyrazolo[3,4-c]pyridin-5-yl]-3-[(1R)-1-phenylethyl]urea]	175 nM
CCCN1CC[C@@H](NC(=O)Nc2cc3cnn(-c4ccnc(C)c4)c3cn2)C1 [Example 29, 1-[1-(2-methylpyridin-4-yl)-1H-pyrazolo[3,4-c]pyridin-5-yl]-3-[(3R)-1-propylpyrrolidin-3-yl]urea]	453 nM
C[C@@H](NC(=O)Nc1cc2cnn(-c3ccc(F)cc3)c2c(COCCO)n1)c1ccccc1 [Example 246, 1-{1-(4-fluorophenyl)-7-[(2-hydroxyethoxy)methyl]-1H-pyrazolo[3,4-c]pyridin-5-yl}-3-[(1R)-1-phenylethyl]urea]	52.2 nM
C[C@@H](NC(=O)Nc1cc2cnn(C3CCNC(=O)C3)c2cn1)c1ccc(F)cc1 (stereo partly drawn) [Example 233, 1-[(1R)-1-(4-fluorophenyl)ethyl]-3-[1-(2-oxopiperidin-4-yl)-1H-pyrazolo[3,4-c]pyridin-5-yl]urea]	1220 nM

Next, values leading:

IC50	Structure (SMILES)
108 nM	Cc1cc(-n2ncc3cc(NC(=O)NCC(C)O)ncc32)ccn1 (stereo not shown) [Example 120, 1-(2-hydroxypropyl)-3-[1-(2-methylpyridin-4-yl)-1H-pyrazolo[3,4-c]pyridin-5-yl)urea]
591 nM	Cc1cc(-n2ncc3cc(NC(=O)N[C@H]4CN(C)C[C@@H]4c4ccc(-c5ccccc5)s4)ncc32)ccn1 [Example 155, 1-[(3R,4S)-1-methyl-4-(5-phenylthiophen-2-yl)pyrrolidin-3-yl]-3-[1-(2-methylpyridin-4-yl)-1H-pyrazolo[3,4-c]pyridin-5-yl]urea]
2.66 nM	CCC(O)(CC)[C@@H](NC(=O)Nc1cc2cnn(-c3ccnc(C)c3)c2cn1)c1ccccc1 [Example 293, 1-[(1S)-2-ethyl-2-hydroxy-1-phenylbutyl]-3-[1-(2-methylpyridin-4-yl)-1H-pyrazolo[3,4-c]pyridin-5-yl]urea]
1.09 nM	CNC(=O)[C@@H](NC(=O)Nc1cc2cnn(-c3ccnc(C)c3)c2cn1)c1ccccc1 [Example 142, (2S)-N-methyl-2-({[1-(2-methylpyridin-4-yl)-1H-pyrazolo[3,4-c]pyridin-5-yl]carbamoyl}amino)-2-phenylethanamide]
60.8 nM	Cc1cc(-n2ncc3cc(NC(=O)N[C@@H]4CN(C(C)C)C[C@H]4c4ccccc4)ncc32)ccn1 [Example 197, 1-[(3S,4R)-1-(1-methyl-ethyl)-4-phenylpyrrolidin-3-yl]-3-[1-(2-methylpyridin-4-yl)-1H-pyrazolo[3,4-c]-pyridin-5-yl]urea]
1.29 nM	CC(C)(O)[C@@H](NC(=O)Nc1cc2cnn(-c3ccc(F)cc3)c2cn1)c1ccc(F)cc1 [Example 295, 1-[(1S)-1-(4-fluorophenyl)-2-hydroxy-2-methylpropyl]-3-[1-(4-fluorophenyl)-1H-pyrazolo[3,4-c]pyridin-5-yl]urea]
1.14 nM	Cc1cc(-n2ncc3cc(NC(=O)N[C@@H]4CN(C)C(C)(C)[C@H]4c4ccccc4C)ncc32)ccn1 [Example 103, 1-[1-(2-methylpyridin-4-yl)-1H-pyrazolo[3,4-c]pyridin-5-yl]-3-[(3S,4S)-1,5,5-trimethyl-4-(2-methylphenyl)pyrrolidin-3-yl)urea]
0.952 nM	Cc1cc(-n2ncc3cc(NC(=O)N[C@H]4CN(C)C[C@@H]4c4ccccc4Cl)ncc32)ccn1 [Example 16, 1-[(3R,4S)-4-(2-chlorophenyl)-1-methylpyrrolidin-3-yl]-3-[1-(2-methylpyridin-4-yl)-1H-pyrazolo[3,4-c]pyridin-5-yl]urea]
1.44 nM	Cc1cc(-n2ncc3cc(NC(=O)NCc4cccc(S(C)(=O)=O)c4)ncc32)ccn1 [Example 93, 1-[1-(2-methylpyridin-4-yl)-1H-pyrazolo[3,4-c]pyridin-5-yl]-3-[3-(methylsulfonyl)-benzyl]urea]
85.1 nM	Cc1cc(-n2ncc3cc(NC(=O)NCC(c4ccccc4)N4CCC(F)(F)CC4)ncc32)ccn1 (stereo not shown) [Example 55, 1-[2-(4,4-difluoropiperidin-1-yl)-2-phenylethyl]-3-[1-(2-methylpyridin-4-yl)-1H-pyrazolo[3,4-c]pyridin-5-yl]urea]
3.33 nM	Cc1cc(-n2ncc3cc(NC(=O)N[C@H](C)c4ccc(Cl)c(Cl)c4)ncc32)ccn1 [Example 220, 1-[(1R)-1-(3,4-dichlorophenyl)ethyl]-3-[1-(2-methylpyridin-4-yl)-1H-pyrazolo[3,4-c]pyridin-5-yl]urea]
0.442 nM	Cc1cc(-n2ncc3cc(NC(=O)NCc4cccc(NS(C)(=O)=O)c4)ncc32)ccn1 [Example 32, N-{3-[({[1-(2-methylpyridin-4-yl)-1H-pyrazolo[3,4-c]pyridin-5-yl]carbamoyl}amino)methyl]phenyl}methanesulfonamide]
16.2 nM	C[C@@H](NC(=O)Nc1cc2cnn(-c3ccncc3)c2cn1)c1ccc(F)cc1 [Example 7, 1-[(1R)-1-(4-fluorophenyl)ethyl]-3-(1-pyridin-4-yl-1H-pyrazolo[3,4-c]pyridin-5-yl)urea]
2.85 nM	Cc1cc(-n2ncc3cc(NC(=O)NC4CCCC(c5ccccc5)C4)ncc32)ccn1 (stereo not shown) [Example 171, 1-[1-(2-methylpyridin-4-yl)-1H-pyrazolo[3,4-c]pyridin-5-yl]-3-(3-phenyl-cyclohexyl)urea]
0.952 nM	Cc1cc(-n2ncc3cc(NC(=O)N[C@H](C)c4cccc(Cl)c4)ncc32)ccn1 [Example 43, 1-[(1R)-1-(3-chlorophenyl)ethyl]-3-[1-(2-methylpyridin-4-yl)-1H-pyrazolo[3,4-c]pyridin-5-yl]urea]
0.812 nM	CC(C)(O)[C@@H](NC(=O)Nc1cc2cnn(-c3ccc(F)cc3)c2cn1)c1ccccc1 [Example 296, 1-[1-(4-fluorophenyl)-1H-pyrazolo[3,4-c]pyridin-5-yl]-3-[(1S)-2-hydroxy-2-methyl-1-phenylpropyl]urea]
17.8 nM	Cc1cc(-n2ncc3cc(NC(=O)NC4CC(c5ccccc5)CN(C)C4)ncc32)ccn1 (stereo not shown) [Example 290, 1-(1-methyl-5-phenylpiperidin-3-yl)-3-[1-(2-methylpyridin-4-yl)-1H-pyrazolo[3,4-c]pyridin-5-yl]urea]
166 nM	Cc1cc(-n2ncc3cc(NC(=O)NC(C)c4ccc(-n5cncn5)cc4)ncc32)ccn1 (stereo not shown) [Example 45, 1-[1-(2-methylpyridin-4-yl)-1H-pyrazolo[3,4-c]pyridin-5-yl]-3-{1-[4-(1H-1,2,4-triazol-1-yl)phenyl]ethyl}urea]
196 nM	Cc1cc(-n2ncc3cc(NC(=O)NC4CC(=O)Nc5ccccc54)ncc32)ccn1 (stereo not shown) [Example 80, 1-[1-(2-methylpyridin-4-yl)-1H-pyrazolo[3,4-c]pyridin-5-yl]-3-(2-oxo-1,2,3,4-tetrahydroquinolin-4-yl)urea]
